These results are taken from patent publication US20220160706A1, “PHARMACEUTICAL COMBINATION COMPRISING TNO155 AND A PD-1 INHIBITOR” (NOVARTIS AG, priority 2019, published 2022).

Several values for one entry are separate records, joined by “and”; a condition that tells them apart may be missing. Equal entries are not always repeated.

In series [1] the test system is phosphorylated ERK1/2 (pERK). In words: in vitro pERK inhibition in KYSE-520. The format is cell-based. The conditions noted are these: Homo sapiens; KYSE-520 cells. The source says: (§1) SHP2 inhibition can be measured by assessing biomarkers within the MAPK signaling pathway, such as decreased levels of phosphorylated ERK1/2 (pERK) and downregulation of dual specificity phosphatase 6 (DUSP6) mRNA transcript.

Series [2] concerns phosphorylated ERK1/2 (pERK). The series can be described thus: in vitro pERK inhibition in DETROIT-562. The class given is cell-based. Conditions: Homo sapiens; DETROIT-562 cells.
Source text: as §1

The subject of series [3] is KYSE-520 (esophageal squamous cell carcinoma) cancer cell line. In words: antiproliferation in KYSE-520. The format is cell-based. Conditions: Homo sapiens; KYSE-520 cells.
Source text: as §1

Series [4] has as its system DETROIT-562 (pharyngeal squamous cell carcinoma) cancer cell line. The series can be described thus: antiproliferation in DETROIT-562. Conditions: Homo sapiens; DETROIT-562 cells. The class given is cell-based.
Series [5] concerns EGFR-dependent DETROIT-562 cancer cell line. The series can be described thus: in vivo SHP2 inhibition and efficacy, DETROIT-562 xenograft. Conditions: oral 20 mg/kg.
Source text: as §1

Another series deals with MC38 cell line. In words: MC38 cell line in vitro proliferation/viability. The format is cell-based, mouse. The conditions noted are these: MC38 (PTPN11 G503V) in vitro, absence of immune cells.
For the next series, the system named is MC38 xenografts. In words: MC38 xenografts in immunocompromised NSG mice. The format is in vivo, mouse.
A further series has as its system MC38 tumors. The series can be described thus: MC38 syngeneic tumors in immune-competent C57BL/6 mice, anti-tumor activity. Conditions: day 14 post-first dose, TNO155 20 mg/kg BID, anti-PD1 10 mg/kg QW. The class given is in vivo, mouse.
The next series relates to CD14+ monocytes. The series can be described thus: M-CSF stimulated proliferation of CD14+ monocytes (CellTiter-Glo). Conditions: 50 ng/mL M-CSF, 6 days incubation. The class given is cell-based, human. The protocol: Investigation of the effect of TNO155 on M-CSF stimualted proliferation of CD14+ monocytes. Peripheral blood mononuclear cells (PBMC) were isolated from the whole blood of two donors (donor 1670 and […]) by CPT tubes and spinning at 1800 rpm for 20 minutes. CD14 positive monocytes were then isolated from PBMC using human Pan Monocyte Isolation Kit (Miltenyi Biotec #130-096-537). 5000 monocytes suspended in 100 μL RPMI media were seeded in 96 well plates with 50 ng/mL recombinant M-CSF. 24 hours later, TNO155 was added at the indicated final concentrations. A CellTiter-Glo® (CTG) cell viability assay was performed according to manufacturer's instructions using a separate plate with identically seeded cells and also performed for all plates after 6 days of incubation with TNO155. The Day 6 measurements were normalized with DMSO treated groups as 100% to evaluate the TNO155 effects on the M-CSF stimulated proliferation of monocytes and the Day 0 cell seeding measurement was indicated by the light dotted line.

A short description of a further series: in vivo. Conditions: mouse.
For another series, the system named is HNSCC. Conditions: HNSCC patients progressed on platinum-based chemotherapy; cited from earlier work.
The next series concerns IL-2 production. The class given is cell-based. The conditions noted are these: human blood ex vivo, super antigen stimulation with Staphylococcal enterotoxin B (SEB).
In a further series the test system is rodent PD-1. The series can be described thus: cross-reactivity with rodent PD-1. The class given is binding.
Another series concerns the target T1, human PD-1 (human, UniProt Q15116 25-167, limits assumed).
T1 construct: also called human PD1 antigen; Programmed Death 1
The series can be described thus: Biacore (SPR); format not stated. In general terms: SPR reads the build-up and loss of mass on a sensor chip optically.

T1 sequence (Q15116 25-167 limits assumed): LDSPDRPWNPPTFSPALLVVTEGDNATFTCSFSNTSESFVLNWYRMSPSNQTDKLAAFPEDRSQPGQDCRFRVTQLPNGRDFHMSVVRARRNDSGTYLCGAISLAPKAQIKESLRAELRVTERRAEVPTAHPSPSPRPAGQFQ

The term IC50 denotes the concentration needed to halve the response being measured. A lower IC50 goes with higher potency. Take `C[C@@H]1OCC2(CCN(c3cnc(Sc4ccnc(N)c4Cl)c(N)n3)CC2)[C@@H]1N` [TNO155, (3S,4S)-8-(6-amino-5-((2-amino-3-chloropyridin-4-yl)thio)pyrazin-2-yl)-3-methyl-2-oxa-8-azaspiro[4.5]decan-4-amine]: the IC50 in series [1] is 8 nM and 0.0034 µg/mL; in series [2], 35 nM; in [3] it was 100 nM; in series [4], 470 nM. Besides, the “decrease in DUSP6 mRNA transcript” value in series [5] (DETROIT-562 in vivo) is “approximately 95%”. Also, the tumor regression in series [5] (twice-daily schedule, DETROIT-562) turned out to be 47%. Also, the “effect on cell proliferation or viability” value in the series on MC38 cell line is reported as “no effect on cell proliferation or viability”. For the same molecule, the anti-tumor activity result in the series on MC38 xenografts (20 mg/kg BID, MC38 in NSG mice) is listed as “lack of anti-tumor activity”. Moreover, in the series on MC38 xenografts (MC38 with G503V mutation), the “impact on downstream MAPK-signaling markers (phospho-ERK, phospho-RSK) in tumor cells” value is reported as “no impact”. Moreover, in the series with MC38 tumors, the “treatment/control (T/C)” value came out at 33.3%. The “M-CSF stimulated proliferation of CD14+ monocytes” value in the series on CD14+ monocytes is “blocked”. Moreover, the MTD in “in vivo” is 20 mg/kg.

In the case of “nivolumab: anti-programmed death-1 (PD-1) antibody”, the “survival rate at one year” value in the series with HNSCC is recorded as 36%.

B1: PDR001 (spartalizumab) (antibody, V domains shown)
VH: EVQLVQSGAEVKKPGESLRISCKGSGYTFTTYWMHWVRQATGQGLEWMGNIYPGTGGSNFDEKFKNRVTITADKSTSTAYMELSSLRSEDTAVYYCTRWTTGTGAYWGQGTTVTVSS
VL: EIVLTQSPATLSLSPGERATLSCKSSQSLLDSGNQKNFLTWYQQKPGQAPRLLIYWASTRESGVPSRFSGSGSGTDFTFTISSLEAEDAATYYCQNDYSYPYTFGQGTKVEIK
By Kd is commonly meant the equilibrium constant for the complex coming apart. Low values mean tighter binding, high ones weaker binding. Take B1: the “enhancement of IL-2 production” value with IL-2 production is reported as “approximately 2 fold”. The “cross-reactivity with rodent PD-1” value in the series on rodent PD-1 was “does not cross-react”. The Kd with human PD-1 worked out at 0.827 nM.
